The numbers were not newly measured in US12521383B2 (Slayback Pharma LLC, priority 2022, dated 2026), which cites them from elsewhere.

For this data set the following is noted: in water, pH independent solubility profile.

What is called aqueous solubility is the dissolved amount per volume that the medium holds. As to `COc1ccc(-n2nc(C(N)=O)c3c2C(=O)N(c2ccc(N4CCCCC4=O)cc2)CC3)cc1` [apixaban, 1-(4-methoxyphenyl)-7-oxo-6-[4-(2-oxopiperidin-1-yl)phenyl]-4,5-dihydropyrazolo [3,4-c] pyridine-3-carboxamide], the aqueous solubility is 40 to 50 µg/mL.
